Experimental data as given in patent US11215617B2, “Treatment of metastatic prostate cancer” (The Regents of the University of California, priority 2013, dated 2022).
Entries after “also recorded” stand apart in the source; their conditions may differ. Where a SMILES comes first, the peptide text is derived from it. The star is where a group is joined. Cbz = O=C(OCc1ccccc1)*

Tests used:
[1] = test system: prostate cancer cells (C4-2 neo, C4-2 AR-V7, CWR22rv1); test: Cell growth assay (cell numbers counted, cell survival rate); format: cell-based; details: 0.5 μM niclosamide, 48 hours, media containing FBS
Method: (§1) Total cell numbers were counted and the cell survival rate (%) was calculated. Cell survival rate (%)=(Treatment group cell number/Control group cell number)×100%. […] Total cell numbers were counted after 2, 4, and 7 days. […] The cells were treated as indicated and total cell numbers were counted.

[2] = test system: pz-HPV7 normal prostate epithelial cells; test: as above; format: cell-based; details: 0.5 μM niclosamide, 48 hours
Method: as §1

[3] = test system: prostate cancer cells (C4-2 neo, C4-2 AR-V7, CWR22rv1); test: Cell death ELISA (apoptosis); format: cell-based; details: 0.5 μM niclosamide, 48 hours
Method: (§2) Floating and attached cells were collected and homogenized in 400 μL of incubation buffer. The wells were coated with antihistone antibodies and incubated with the lysates, horseradish peroxidase-conjugated anti-DNA antibodies, and the substrate. Absorbance was measured at 405 nm.

[4] = test system: pz-HPV7 cells; test: Cell death ELISA (apoptosis); format: cell-based; details: 0.5 μM niclosamide, 48 hours
Method: as §2

[5] = test system: prostate cancer cells (CWR22rv1, C4-2 AR-V7, C4-2 neo); test: Clonogenic assay; format: cell-based; details: 0, 0.5, 1.0 μM niclosamide
[6] = test system: C4-2B MR cells; test: Clonogenic assay; format: cell-based
[7] = test system: AR; test: PSA luciferase assay in LNCaP cells, DHT induced; format: cell-based, human; details: niclosamide or enzalutamide with DHT overnight
Source text: LNCaP, C4-2 or 293 cells were transfected with pGL3-PSA6.0-Luc, pGL3-AREI/II-Luc reporters along with AR-V7, for example as indicated in the figures, in FBS or CS-FBS condition. Cell lysates were subjected to luciferase assays with the Luciferase Assay System (Promega).

[8] = test system: PSA; test: PSA ELISA of culture supernatants of C4-2 AR-V7 cells; format: cell-based; details: CS-FBS, 1.0 μM niclosamide overnight
Method: PSA levels were measured in the culture supernatants using ELISA (United Biotech, Inc., Mountain View, Calif.) according to the manufacturer's instructions.

[9] = test system: PSA; test: Western blot of PSA protein in C4-2 AR-V7 cells; format: cell-based; details: CS-FBS, 1.0 μM niclosamide or 20 μM enzalutamide overnight
Method: (§3) Whole cell protein extracts were resolved on SDS-PAGE and proteins were transferred to nitrocellulose membranes. […] Tubulin was used to monitor the amounts of samples applied. Following secondary antibody incubation, immunoreactive proteins were visualized with an enhanced chemiluminescence detection system (Millipore, Billerica, Mass.).

[10] = test system: recruitment of AR-V7 to PSA promoter; test: ChIP assay in C4-2 AR-V7 cells; format: cell-based; details: CS-FBS 3 days, niclosamide (0.5 μM and 1 μM) or 20 μM enzalutamide overnight
Method: C4-2 neo and C4-2 AR-V7 cells were treated as noted herein. DNA-AR protein complexes were cross-linked inside the cells by the addition of 1% formaldehyde. Whole-cell extracts were prepared by sonication, and an aliquot of the cross-linked DNA-protein complexes was immunoprecipitated by incubation with the AR-specific antibody (AR-441 obtained from Santa Cruz Biotechnology) overnight at 4° C. with rotation. Chromatin-antibody complexes were isolated from solution by incubation with protein A/G agarose beads for 1 hour at 4° C. with rotation. The bound DNA-protein complexes were washed and eluted from beads with elution buffer (1% SDS and 0.1 mol/L NaHCO3), crosslinking was reversed, and DNA was extracted. The resulting chromatin preparations were analyzed by PCR using primers spanning either the proximal or the distal enhancer AREs of the PSA promoter. Isotype-matched IgG was used as control.

[11] = test system: C4-2B MR cells; test: Cell growth assay; format: cell-based; details: different concentrations, 48 hours
Method: as §1

[12] = test system: CWR22rv1 cells; test: Cell growth assay; format: cell-based; details: dose and time dependent
Method: Total cell numbers were counted after 3 or 5 days. […] Total cell numbers were counted or the cell survival rate (%) was calculated. Cell survival rate (%)=(Treatment group cell number/Control group cell number)×100%.

[13] = test system: C4-2B and C4-2B MR cells; test: Growth or viability (FIG. 22); format: cell-based
[14] = test system: C4-2B and C4-2B AbiR cells; test: Growth or viability (FIG. 23); format: cell-based
[15] = test system: STAT3; test: STAT3 activation in LNCaP-s17 cells; format: cell-based, human
Method: as §3

[16] = test system: LNCaP-s17 cells; test: Cell growth assay; format: cell-based, human
[17] = test system: prostate cancer cells; test: Cell growth, migration, invasion and colony formation (FIGS. 16-19); format: cell-based; details: effect appears to be dose dependent
[18] = test system: LNCaP-s17 cells; test: Cell migration or invasion (FIG. 24); format: cell-based, human
[19] = test system: LNCaP-STAT3C cells; test: Cell migration or invasion (FIG. 25); format: cell-based, human
[20] = test system: CWR22rv1 xenografts; test: CWR22rv1 xenograft tumor growth in SCID mice; format: in vivo; details: 3 weeks
Method: CWR22rv1 cells (3 million) were mixed with matrigel (1:1) and injected subcutaneously into the flanks of 6-7 week male SCID mice. […] Tumors were measured using calipers twice a week and tumor volumes were calculated using length×width2/2. Tumor tissues were harvested after 3 weeks of treatment.
Tumors were measured using calipers twice a week and tumor volumes were calculated using length×width2/2. Tumor tissues were harvested after 3 weeks of treatment. The results are depicted in FIGS. 40A-40D.
For the in vivo experiment, CWR22Rv1 cells (4 million) were mixed with matrigel (1:1) and injected subcutaneously into the flanks of male SCID mice. […] Tumors were measured using calipers twice a week and tumor volumes were calculated using length×width2/2. Tumor tissues were harvested after 3 weeks of treatment. The results are depicted in FIGS. 42A-42D.
CWR22Rv1 cells (4 million) were mixed with matrigel (1:1) and injected subcutaneously into the flanks of 6-7 week male SCID mice. […] Tumors were measured using calipers twice a week and tumor volumes were calculated using length×width2/2. Tumor tissues were harvested after 3 weeks of treatment.

[21] = test system: STAT3; details: DU145 cells, shown previously; cited from earlier work
[22] = test system: cancer cells; details: some reports suggest; cited from earlier work
[23] = test system: normal cells; details: some reports suggest; cited from earlier work
[24] = test system: cancer cell metastasis and migration; details: in vitro and in vivo, reported; cited from earlier work
[25] = test system: CWR22rv1 cells; test: Clonogenic assay
[26] = molecular target: T1, AR-V7 (Homo sapiens, UniProt P10275); test: AR-V7 protein degradation after cycloheximide block in CWR22rv1 cells; format: cell-based; details: MG132 5 μM, cycloheximide 50 μg/mL, 2 μM niclosamide, 8 h
T1 construct: CWR22rv1 cells, which express high endogenous AR-V7; endogenous in cells; host or cells: CWR22rv1
T1 sequence (P10275 1-644 isoform P10275-3): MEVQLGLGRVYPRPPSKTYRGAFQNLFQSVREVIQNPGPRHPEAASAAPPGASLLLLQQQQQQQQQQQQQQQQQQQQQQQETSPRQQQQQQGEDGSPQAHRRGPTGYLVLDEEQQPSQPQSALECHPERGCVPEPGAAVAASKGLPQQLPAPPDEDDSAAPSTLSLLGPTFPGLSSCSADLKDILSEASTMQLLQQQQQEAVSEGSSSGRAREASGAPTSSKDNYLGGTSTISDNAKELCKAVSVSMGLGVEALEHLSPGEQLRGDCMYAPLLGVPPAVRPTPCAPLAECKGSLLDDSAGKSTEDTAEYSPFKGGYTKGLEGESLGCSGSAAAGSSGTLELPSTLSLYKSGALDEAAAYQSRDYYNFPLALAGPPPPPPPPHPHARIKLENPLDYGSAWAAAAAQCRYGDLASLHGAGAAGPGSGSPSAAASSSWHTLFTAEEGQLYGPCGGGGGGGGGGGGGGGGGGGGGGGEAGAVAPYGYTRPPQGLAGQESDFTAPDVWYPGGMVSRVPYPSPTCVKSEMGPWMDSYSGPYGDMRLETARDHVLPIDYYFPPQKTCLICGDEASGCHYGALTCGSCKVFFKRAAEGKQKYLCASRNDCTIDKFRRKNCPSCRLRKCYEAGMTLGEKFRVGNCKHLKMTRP
Method: At specified time points, cells were harvested, and the levels of AR-V7 protein were measured by Western blot using antibodies specific against AR-V7. […] The cell lysates were prepared at 8 h. AR-V7 protein levels were determined by Western blot analysis using antibodies specifically against AR-V7 and tubulin as a control.
At specified time points, cells were harvested, and the levels of AR-V7 protein were measured by Western blot using antibodies specific against AR-V7.

[27] = C4-2B MR cells, 0.5 μM or 1.0 μM niclosamide, 10 μM or 20 μM enzalutamide

O=C(Nc1ccc([N+](=O)[O-])cc1Cl)c1cc(Cl)ccc1O [niclosamide, (5-chloro-N-2chloro-4-nitro-phenyl)-2-hydroxybenzamide]
cell growth [1]: significantly inhibited cell growth
cell growth [2]: little effects
cell apoptosis (cell death ELISA) [3]: significantly induced cell apoptosis
cell apoptosis (cell death ELISA) [4]: little effect
clonogenic ability [5]: significantly inhibited clonogenic ability of prostate cancer cells in a dose dependent manner
colony formation [6, 27]: significantly inhibited colony formation; also recorded: inhibited colony formation in a dose dependent manner
colony size [6, 27]: significantly inhibited the colony size
colony formation ([6]; C42B MR cells, 0.25 μM niclosamide (FIGS. 37 and 38)): significantly inhibits colony formation
enhancement of enzalutamide inhibition of colony formation ([6]; C42B MR cells, 0.25 μM niclosamide with 20 μM enzalutamide): significantly enhances enzalutamide inhibition of colony formation
DHT induced AR transcriptional activity [7]: dramatically inhibited DHT induced AR transcriptional activity
PSA levels (ELISA) [8]: significantly inhibited PSA levels
PSA protein expression (western blot) [9]: significantly inhibited PSA protein expression
recruitment of AR-V7 to PSA promoter [10]: significantly reduced recruitment of AR-V7 to PSA promoter
cell growth (total cell numbers) [11]: significantly inhibited; also recorded: inhibited C4-2B MR cell growth in a dose dependent manner
enhancement of bicalutamide effects in vitro [12]: significantly enhanced bicalutamide effects
enhancement of the effect of enzalutamide on growth or viability [13]: enhances the effect of enzalutamide
enhancement of the effect of abiraterone on growth or viability [14]: enhances the effect of arbiraterone
STAT3 activation [15]: significantly inhibited STAT3 activation; also recorded: inhibited constitutively active STAT3 in a dose dependent manner
cell growth, time dependent experiment ([16]; 20 μM enzalutamide and 0.25 μM niclosamide individually or in combination, 2, 4 and 7 days): little effect
cell growth [17]: inhibits
colony formation [17]: inhibits
invasion [17]: inhibits
migration [17]: inhibits
cell migration or invasion [18]: inhibits cell migration or invasion
cell migration or invasion [19]: inhibits cell migration or invasion
enhancement of bicalutamide effects in vivo ([20]; bicalutamide 25 mg/kg p.o. + niclosamide 25 mg/kg i.p., 5 days per week): enhanced bicalutamide treatment; also recorded: significantly enhanced bicalutamide effects
tumor volume ([20]; enzalutamide 25 mg/kg p.o., niclosamide 25 mg/kg i.p., or both): decreased the tumor volume
xenograft tumor growth ([20]; niclosamide 200 mg/kg p.o. B.I.D., 5 days per week): significantly inhibited Rv1 xenograft tumor growth
STAT3 expression [21]: able to inhibit STAT3 expression
activity against cancer cells [22]: active against cancer cells
viability of normal cells [23]: minimal effects on the viability of normal cells
cancer cell metastasis and migration [24]: inhibit cancer cell metastasis and migration in vitro and in vivo
colony formation ([25]; CWR22rv1 cells, 0, 0.5 μM or 1.0 μM niclosamide): inhibited colony formation in a dose dependent manner
enhancement of enzalutamide inhibition of colony formation ([25]; CWR22rv1 cells, 0.25 μM niclosamide with 20 μM enzalutamide): significantly enhances enzalutamide inhibition of colony formation

CC(C)C[C@@H](C=O)NC(=O)[C@H](CC(C)C)NC(=O)[C@H](CC(C)C)NC(=O)OCc1ccccc1 [MG132] (Cbz-Leu-Leu-Leu-aldehyde)
niclosamide effect on AR-V7 protein levels in presence of MG132 [26]: able to retard the niclosamide effect on AR-V7 protein levels

N#C/C(=C/c1ccc(O)c(O)c1)C(=O)NCc1ccccc1 [AG490]
reversal of enzalutamide resistance ([16]; 10 μM AG490 with 20 μM enzalutamide, 48 h): reverse enzalutamide resistance
